Measured values from patent publication US12193328B2, “Aromatic compounds and use thereof for formation of molecular layers and fabrication of switching elements for memristive devices” (MERCK PATENT GMBH, priority 2019, dated 2025).
Like-named read-outs stand apart in the source and are kept apart here.

Assay: Comparative solubility test in various solvents
Type: physicochemical
Conditions: 1 mM concentration, 23° C., stirred 18 h, visually inspected; for solubility at 18 h: organic solvent or mixture, thermodynamic from solid
Experimental: Comparative Solubility Test
The comparative solubilities of the following Reference Compound 1 (reference from DE102017005884):
[drawing 83] and of Synthesis Example 1 in various solvents at 1 mM concentration at 23° C. are experimentally determined. The sample is stirred for 18 h at 23° C. and then visually inspected. In the table below the expression “soluble” means that after 18 h a clear solution is obtained. “Not soluble” means that remaining solid is observed.

[1] = 1-Methoxy-2-propanol acetate, read-out: Solubility in 1-methoxy-2-propanol acetate
[2] = Cyclohexanone, read-out: Solubility in cyclohexanone

| SMILES | Solubility in chloroform | Solubility in THF | Solubility in toluene (Toluene) | solubility at 18 h [1] [µM] | solubility at 18 h [2] [µM] | solubility at 18 h (Ethyl acetate, read-out: Solubility in ethyl acetate) [µM] | Solubility in 1-methoxy-2-propanol acetate (1-Methoxy-2-propanol acetate) | Solubility in cyclohexanone (Cyclohexanone) | Solubility in ethyl acetate (Ethyl acetate) | solubility at 18 h (Toluene, read-out: Solubility in toluene) [µM] |
| --- | --- | --- | --- | --- | --- | --- | --- | --- | --- | --- |
| CCCCCC1CCC(c2ccc(OCCCCCCCCCCCP(=O)(O)O)c(F)c2F)CC1 (centres unmarked) [Reference 1, 11-[2,3-difluoro-4-(4-pentylcyclohexyl)phenoxy]undecylphosphonic acid, reference compound] | Soluble | Soluble | Soluble | < 1000 | < 1000 | < 1000 |  |  |  |  |
| CCCCC[C@H]1CC[C@H](c2ccc(Oc3c(C)cc(P(=O)(O)O)cc3C)c(F)c2F)CC1 [Synthesis Example 1, [4-[2,3-difluoro-4-(4-pentylcyclohexyl)phenoxy]-3,5-dimethyl-phenyl]phosphonic acid] | Soluble | Soluble |  | > 1000 | > 1000 |  | Soluble | Soluble | Soluble | < 1000 |
